This passage reports GI50 and TGI results from PubChem BioAssay (NCI).

Each structure is given as a SMILES string.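 Briefly, cells in 96-well plates were exposed to five compound concentrations for 48 h, and endpoints were estimated by linear interpolation. GI50 is the concentration that inhibits growth by half. Definition used: TGI = concentration required for complete inhibition of growth.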

Holding throughout (experiment): inhibition of tumour cell growth, NCI panel, 48 h
Test [1] has as its system MDA-MB-231 breast.
Test [2] has as its system HCT-15 colon.
Test [3] has as its system CCRF-CEM leukemia.
Test [4] relates to NCI-H522 lung.
In test [5] the test system is SW-620 colon.
Test [6] deals with RXF 393 renal.
Test [7] deals with SK-OV-3 ovarian.
Test [8] concerns SN12C renal.
In test [9] the test system is UO-31 renal.
Test [10] deals with DU-145 prostate.

As for `CC[C@H](C)[C@H](NC(=O)C12CC(NC(C)=O)(C1)C2)C(=O)N(C)[C@H](C[C@@H](OC(C)=O)c1nc(C(=O)N[C@@H](Cc2ccccc2)C[C@H](C)C(=O)OC)cs1)C(C)C`, the GI50 in test [1] was 0.439 µM; in test [2] it was 1.09 µM; in [3] it was 0.273 µM; in [4], 0.0551 µM; in test [5] it was 0.0854 µM; in test [6] it was 0.359 µM. The GI50 was 0.394 µM in test [7], 0.937 µM in [8], over 8.2 µM in [9] and 0.136 µM in [10]. Besides, the TGI was over 16.7 µM in test [1]; over 16.7 µM in test [2]; over 16.7 µM in test [3]; 0.45 µM in [4]; over 16.7 µM in test [5]; over 16.7 µM in [6]. The TGI is over 10.9 µM in test [7], over 16.7 µM in test [8], over 16.7 µM in [9] and over 10.7 µM in [10].

For `COc1ccc(-c2cncn2-c2cc(OC)c(OC)c(OC)c2)cc1F`, the GI50 in test [1] is 0.103 µM; in test [2], under 0.01 µM; in [3] it was under 0.0296 µM; in [4], under 0.01 µM; in [5], under 0.0177 µM; in test [6], under 0.0278 µM. Besides, the GI50 in test [7] is under 0.0486 µM; in test [8], 0.789 µM; in test [9], 0.0717 µM; in test [10] it was under 0.0342 µM. Moreover, the TGI in [1] is over 100 µM; in test [2], over 100 µM; in test [3], over 100 µM; in [4], 1.03 µM; in [5], over 100 µM; in test [7] it was 57.2 µM. In addition, the TGI in test [8] is over 100 µM; in test [9] it was 64.8 µM; in [10], over 100 µM.

For the compound `N#CC(C#N)=Cc1ccc(-c2ccc(-c3nc4ccccc4o3)cc2)o1`, the GI50 in [1] was 19.9 µM; in test [2], 20.2 µM; in test [3] it was 11.6 µM; in [4], 60.4 µM; in test [5], 20.5 µM; in test [6], 96.2 µM. For the same compound, the GI50 in test [7] was 38.3 µM; in [9], 58.4 µM; in test [10], 36.5 µM. Besides, the TGI was 69.5 µM in [1]; over 100 µM in test [2]; over 100 µM in test [3]; over 100 µM in test [4]; over 100 µM in test [5]; over 100 µM in [6]. The TGI was over 100 µM in test [7], 16.5 µM in [8], over 100 µM in test [9] and over 100 µM in test [10].

For the compound `c1cnc2c(c1)Nc1cnncc1S2`, the TGI in test [1], in test [2], in test [3], in test [4], in [5] and in test [6] was over 100 µM in each case. Also, the TGI in test [7], in test [8], in test [9] and in [10] was over 100 µM throughout.

Consider `N#Cc1c(Oc2ccc(F)c(NC(=O)Cc3cccc(C(F)(F)F)c3)c2)ccc2nc(NC(=O)C3CC3)sc12`, for which the GI50 is 0.422 µM in [1]; 0.261 µM in test [2]; 0.622 µM in test [3]; 0.942 µM in test [4]; 0.585 µM in [5]; 1.31 µM in test [6]. The GI50 in [7] is 1.93 µM; in test [8], 1.26 µM; in test [9] it was 0.553 µM; in [10] it was 2.34 µM. For the same compound, the TGI in test [1] is 6.26 µM; in test [2] it was over 100 µM; in test [3] it was over 100 µM; in test [4], over 25 µM; in [5], over 100 µM; in test [6] it was 5.39 µM. The TGI in [7] was over 100 µM; in test [8] it was over 100 µM; in [9], over 24.2 µM; in test [10] it was over 100 µM.

For `O=C1c2cccc3cc([N+](=O)[O-])cc(c23)C(=O)N1O`, the TGI in [1], in [2], in test [3], in [4], in [5] and in test [6] was over 100 µM in each case. Moreover, the TGI in test [7], in [8], in test [9] and in [10] was over 100 µM each time.

For `O=[N+]([O-])c1ccc(-c2ccccc2)c([As](=O)(O)O)c1`, the GI50 in [1] is 10 µM; in test [2], 9.3 µM; in test [3], 4.42 µM; in test [4], 6.92 µM; in test [5], 7.82 µM; in test [6], 10.7 µM. Moreover, the GI50 is 24.2 µM in test [7], 12.7 µM in test [8], 12.3 µM in [9] and 11.3 µM in [10]. The TGI was found to be 37.4 µM in test [1]; 41.2 µM in test [2]; 39.9 µM in [3]; 21.3 µM in test [4]; 24.4 µM in test [5]; 23.2 µM in test [6]. Further, the TGI in [7] was 91.5 µM; in test [8], over 100 µM; in test [9], 44.8 µM; in [10] it was 29 µM.

`CC(=O)OCC(=O)C1(O)C(C)CC2C3C=C(C)C4=Cc5c(cnn5-c5ccccc5)CC4(C)C3C(O)CC21C` (centres undefined): the GI50 in test [1] was 1.85 µM; in [2] it was 1.15 µM; in test [4], 1.97 µM; in test [5], 1.7 µM; in [6] it was 0.781 µM; in test [9] it was 2.47 µM. Moreover, the GI50 in [10] was 1.93 µM. Also, the TGI in test [1] is 4.34 µM; in test [2], 2.54 µM; in [3], over 100 µM; in test [4], 5.24 µM; in test [5], 3.42 µM; in [6], 2.39 µM. Moreover, the TGI turned out to be 5.71 µM in test [7], 9.86 µM in [8], 8.43 µM in test [9] and 5.74 µM in test [10].

`O=C(NO)c1cnc(N2CCN(S(=O)(=O)c3ccc4ccccc4c3)CC2)nc1`: the GI50 was 0.199 µM in test [1]; 0.069 µM in test [2]; 0.0379 µM in test [3]; 0.02 µM in test [4]; 0.0349 µM in [5]; 0.0399 µM in test [6]. The GI50 is 0.147 µM in [7], 0.198 µM in test [8], 0.0597 µM in test [9] and 0.0445 µM in [10]. The TGI was 5.28 µM in test [1]; 15.6 µM in test [2]; over 64.7 µM in test [3]; 0.104 µM in [4]; 0.208 µM in test [6]; 2.33 µM in test [7]. For the same compound, the results for the TGI in test [8], in test [9] and in [10] were 13.2 µM, 0.854 µM and 2.23 µM, respectively.

Regarding `CON`, the GI50 in test [1], in [2], in [3], in test [4], in test [5] and in test [6] was over 100 µM throughout. Moreover, the GI50 in test [7], in test [8], in test [9] and in test [10] was over 100 µM in each case. For the same compound, the TGI in test [1], in test [2], in test [3], in test [4], in test [5] and in [6] was over 100 µM each time. Besides, the TGI in test [7], in test [8], in [9] and in test [10] was over 100 µM each time.

On to `CC(C)N(C[C@H]1O[C@@H](n2cnc3c(N)ncnc32)[C@H](O)[C@@H]1O)C1CC(CCc2nc3ccc(C(C)(C)C)cc3[nH]2)C1` (some centres undefined), for which the GI50 in test [1] is 69.8 µM; in test [2], over 100 µM; in test [3], over 49.3 µM; in test [4] it was over 75.9 µM; in [5] it was over 100 µM; in test [6] it was 21.2 µM. Moreover, the GI50 in test [7], in test [8], in [9] and in test [10] was over 100 µM in each case. Besides, the TGI was over 100 µM in [1]; over 100 µM in [2]; over 84.4 µM in test [3]; over 100 µM in test [4]; over 100 µM in test [5]; over 100 µM in test [6]. Besides, the TGI in [7], in test [8], in test [9] and in [10] was over 100 µM each time.

For the compound `CNCCOc1nc2c3cnccc3cc(-c3cc(OC)c(OC)c(OC)c3)c2c2ccncc12`, the GI50 in test [1] was 0.0765 µM; in test [2], 0.0467 µM; in test [3] it was under 0.013 µM; in [4], 0.0666 µM; in test [5], 0.0243 µM; in [6], 0.0469 µM. In addition, the GI50 in [7] was 0.0323 µM; in test [8], 0.0199 µM; in test [9], 0.0302 µM; in test [10], 0.022 µM. Moreover, the TGI was found to be 1.18 µM in [1]; 2.19 µM in [2]; 1.1 µM in test [3]; 0.661 µM in test [4]; 1.7 µM in test [5]; 0.188 µM in test [6]. In addition, the TGI in test [7] was determined as 0.185 µM; in test [8] it was 0.0872 µM; in [9], 0.156 µM; in [10] it was 0.167 µM.

Take `C=C1CO[C@@H]2C[C@@H]1CC/C(C)=C/CC/C(C)=C/CC[C@@]2(C)O`: the GI50 is 15.5 µM in [1]; 19.9 µM in [2]; 14.7 µM in test [3]; 21.1 µM in test [4]; 22.2 µM in test [5]; 20 µM in test [6]. The GI50 in test [7] is 24 µM; in test [8], 20 µM; in test [9], 17.1 µM; in test [10], 18.5 µM. Also, the TGI was 33.3 µM in test [1]; 38 µM in test [2]; 33.9 µM in [3]; 45.2 µM in [4]; 45.9 µM in [5]; 39.3 µM in test [6]. For the same compound, the TGI in test [7] was 56.6 µM; in test [8], 43.7 µM; in [9], 36.5 µM; in test [10] it was 38.3 µM.

`COc1ccc(-n2sc(=O)n(Cc3ccc(COC(=O)C(C)c4ccc(CC(C)C)cc4)cc3)c2=O)cc1` (centres undefined): the GI50 in test [1] is 1.86 µM; in [2], 1.1 µM; in test [3], 0.567 µM; in [4] it was 0.994 µM; in test [5] it was 0.9 µM; in test [6], 1.27 µM. Moreover, the GI50 in test [7] was 28 µM; in test [8], 2.83 µM; in test [9], 0.819 µM; in [10] it was 1.85 µM. The TGI in test [1] came to 7.11 µM; in [2] it was 2.86 µM; in test [3] it was 3.74 µM; in test [4], 2.25 µM; in test [5], 1.82 µM; in test [6] it was 3.79 µM. Besides, the TGI was found to be 50 µM in [7], 9.49 µM in [8], 1.6 µM in test [9] and 6.34 µM in [10].

Consider `N#CC[C@H](C1CCCC1)n1cc(-c2ncnc3[nH]ccc23)cn1`, for which the GI50 was 23.9 µM in [1]; 26.6 µM in test [2]; 29.1 µM in test [3]; 21 µM in test [4]; 12.5 µM in test [5]; 4.06 µM in test [6]. Also, the GI50 in test [7] is 24.7 µM; in [8], 22.1 µM; in test [9], 4.53 µM; in test [10], 19.3 µM. The TGI was over 100 µM in [1]; over 100 µM in test [2]; over 100 µM in test [3]; 57.9 µM in test [4]; over 96.6 µM in test [5]; 27.2 µM in test [6]. Further, the TGI in test [7] was over 88 µM; in test [8] it was over 100 µM; in test [9] it was 82 µM; in [10], over 100 µM.
